# Reference: PubChem BioAssay (NCI)
#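 Cultured in 96-well plates, cells were exposed to test compound for 48 hours across five concentrations. Abbreviation: GI50, concentration required for 50% inhibition of growth. TGI is the concentration that stops growth completely.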
# Legend:
# Test in all cases: NCI-60 cell line screen, 48 h
# RPMI-8226 leukemia = tested on: RPMI-8226 leukemia
# OVCAR-5 ovarian = tested on: OVCAR-5 ovarian
# HCT-116 colon = tested on: HCT-116 colon
# SF-268 CNS = tested on: SF-268 CNS
# CAKI-1 renal = tested on: CAKI-1 renal
# OVCAR-3 ovarian = tested on: OVCAR-3 ovarian
# SF-295 CNS = tested on: SF-295 CNS
# SN12C renal = tested on: SN12C renal
# HOP-92 NSCLC = tested on: HOP-92 NSCLC
# PC-3 prostate = tested on: PC-3 prostate
# HS 578T breast = tested on: HS 578T breast
# NCI-H522 lung = tested on: NCI-H522 lung
# MDA-MB-435 = tested on: MDA-MB-435
# SNB-75 CNS = tested on: SNB-75 CNS
# SK-OV-3 ovarian = tested on: SK-OV-3 ovarian
# SNB-19 CNS = tested on: SNB-19 CNS
# OVCAR-4 ovarian = tested on: OVCAR-4 ovarian
# A549 NSCLC = tested on: A549 NSCLC
# SK-MEL-2 melanoma = tested on: SK-MEL-2 melanoma
# SF-539 CNS = tested on: SF-539 CNS
# K-562 leukemia = tested on: K-562 leukemia
# TK-10 renal = tested on: TK-10 renal
# SW-620 colon = tested on: SW-620 colon
# EKVX NSCLC = tested on: EKVX NSCLC
# SR leukemia = tested on: SR leukemia
# HOP-62 NSCLC = tested on: HOP-62 NSCLC
# LOX IMVI melanoma = tested on: LOX IMVI melanoma
# 786-0 renal = tested on: 786-0 renal
# U251 CNS = tested on: U251 CNS
# SK-MEL-28 melanoma = tested on: SK-MEL-28 melanoma
# NCI-H23 lung = tested on: NCI-H23 lung
# MALME-3M melanoma = tested on: MALME-3M melanoma
# IGROV1 ovarian = tested on: IGROV1 ovarian
# NCI/ADR-RES ovarian = tested on: NCI/ADR-RES ovarian
# HCC-2998 colon = tested on: HCC-2998 colon
# CCRF-CEM leukemia = tested on: CCRF-CEM leukemia
# T-47D breast = tested on: T-47D breast
# BT-549 breast = tested on: BT-549 breast
# SK-MEL-5 melanoma = tested on: SK-MEL-5 melanoma
# MCF7 breast = tested on: MCF7 breast
# MDA-MB-231 breast = tested on: MDA-MB-231 breast
# NCI-H460 lung = tested on: NCI-H460 lung
# HL-60(TB) leukemia = tested on: HL-60(TB) leukemia
# MOLT-4 leukemia = tested on: MOLT-4 leukemia
# NCI-H226 lung = tested on: NCI-H226 lung
# A498 renal = tested on: A498 renal
# UACC-62 melanoma = tested on: UACC-62 melanoma
# OVCAR-8 ovarian = tested on: OVCAR-8 ovarian
# RXF 393 renal = tested on: RXF 393 renal
# HT29 colon = tested on: HT29 colon
# ACHN renal = tested on: ACHN renal
# M14 melanoma = tested on: M14 melanoma
# DU-145 prostate = tested on: DU-145 prostate
# KM12 colon = tested on: KM12 colon
# UACC-257 melanoma = tested on: UACC-257 melanoma
# COLO 205 colon = tested on: COLO 205 colon
# UO-31 renal = tested on: UO-31 renal
# HCT-15 colon = tested on: HCT-15 colon
smiles,measurement,setting,value
O=C1c2ccccc2-c2nccc3cc(Cl)nc1c23,GI50,RPMI-8226 leukemia,0.705 µM
same,TGI,RPMI-8226 leukemia,3.35 µM
same,GI50,OVCAR-5 ovarian,> 72.5 µM
same,TGI,OVCAR-5 ovarian,> 100 µM
same,GI50,HCT-116 colon,1.18 µM
same,TGI,HCT-116 colon,2.41 µM
same,GI50,SF-268 CNS,1.74 µM
same,TGI,SF-268 CNS,4.28 µM
same,GI50,CAKI-1 renal,> 100 µM
same,TGI,CAKI-1 renal,> 100 µM
same,GI50,OVCAR-3 ovarian,0.631 µM
same,TGI,OVCAR-3 ovarian,1.79 µM
same,GI50,SF-295 CNS,4.61 µM
same,TGI,SF-295 CNS,> 88.9 µM
same,GI50,SN12C renal,2.25 µM
same,TGI,SN12C renal,> 100 µM
same,GI50,HOP-92 NSCLC,1.56 µM
same,TGI,HOP-92 NSCLC,5.64 µM
same,GI50,PC-3 prostate,2.96 µM
same,TGI,PC-3 prostate,> 100 µM
same,GI50,HS 578T breast,1.99 µM
same,TGI,HS 578T breast,14.2 µM
same,GI50,NCI-H522 lung,0.458 µM
same,TGI,NCI-H522 lung,1.61 µM
same,GI50,MDA-MB-435,1.41 µM
same,TGI,MDA-MB-435,2.84 µM
same,GI50,SNB-75 CNS,1.93 µM
same,TGI,SNB-75 CNS,9.56 µM
same,GI50,SK-OV-3 ovarian,35.9 µM
same,TGI,SK-OV-3 ovarian,> 100 µM
same,GI50,SNB-19 CNS,20.7 µM
same,TGI,SNB-19 CNS,74.8 µM
same,GI50,OVCAR-4 ovarian,1.64 µM
same,TGI,OVCAR-4 ovarian,3 µM
same,GI50,A549 NSCLC,5.15 µM
same,TGI,A549 NSCLC,> 94.1 µM
same,GI50,SK-MEL-2 melanoma,2.83 µM
same,TGI,SK-MEL-2 melanoma,7.28 µM
same,GI50,SF-539 CNS,4.88 µM
same,TGI,SF-539 CNS,24.7 µM
same,GI50,K-562 leukemia,0.665 µM
same,TGI,K-562 leukemia,5.24 µM
same,GI50,TK-10 renal,4.33 µM
same,TGI,TK-10 renal,> 100 µM
same,GI50,SW-620 colon,1.15 µM
same,TGI,SW-620 colon,2.37 µM
same,GI50,EKVX NSCLC,48.9 µM
same,TGI,EKVX NSCLC,> 100 µM
same,GI50,SR leukemia,1.34 µM
same,TGI,SR leukemia,4.18 µM
same,GI50,HOP-62 NSCLC,2.89 µM
same,TGI,HOP-62 NSCLC,18.6 µM
same,GI50,LOX IMVI melanoma,1.13 µM
same,TGI,LOX IMVI melanoma,2.33 µM
same,GI50,786-0 renal,5.72 µM
same,TGI,786-0 renal,> 100 µM
same,GI50,U251 CNS,2.43 µM
same,TGI,U251 CNS,10.4 µM
same,GI50,SK-MEL-28 melanoma,2.22 µM
same,TGI,SK-MEL-28 melanoma,15.8 µM
same,GI50,NCI-H23 lung,1.12 µM
same,TGI,NCI-H23 lung,2.4 µM
same,GI50,MALME-3M melanoma,0.908 µM
same,TGI,MALME-3M melanoma,2.42 µM
same,GI50,IGROV1 ovarian,0.586 µM
same,TGI,IGROV1 ovarian,1.91 µM
same,GI50,NCI/ADR-RES ovarian,5.16 µM
same,TGI,NCI/ADR-RES ovarian,> 72.9 µM
same,GI50,HCC-2998 colon,> 48.5 µM
same,TGI,HCC-2998 colon,> 100 µM
same,GI50,CCRF-CEM leukemia,1.06 µM
same,GI50,T-47D breast,0.385 µM
same,TGI,T-47D breast,1.72 µM
same,GI50,BT-549 breast,7.11 µM
same,TGI,BT-549 breast,> 100 µM
same,GI50,SK-MEL-5 melanoma,1.34 µM
same,TGI,SK-MEL-5 melanoma,2.61 µM
same,GI50,MCF7 breast,1.3 µM
same,TGI,MCF7 breast,2.72 µM
same,GI50,MDA-MB-231 breast,4.62 µM
same,TGI,MDA-MB-231 breast,> 73.4 µM
same,GI50,NCI-H460 lung,3 µM
same,TGI,NCI-H460 lung,12.2 µM
same,GI50,HL-60(TB) leukemia,1.97 µM
same,TGI,HL-60(TB) leukemia,> 100 µM
same,GI50,MOLT-4 leukemia,2.21 µM
same,TGI,MOLT-4 leukemia,> 26.8 µM
same,GI50,NCI-H226 lung,18.7 µM
same,TGI,NCI-H226 lung,> 81.5 µM
same,GI50,A498 renal,6.21 µM
same,TGI,A498 renal,32.5 µM
same,GI50,UACC-62 melanoma,2.77 µM
same,TGI,UACC-62 melanoma,13 µM
COc1ccc(-c2nc(-c3cc4ccccc4oc3=O)cs2)cc1,TGI,RPMI-8226 leukemia,> 100 µM
same,TGI,OVCAR-5 ovarian,> 100 µM
same,TGI,HCT-116 colon,> 100 µM
same,TGI,OVCAR-8 ovarian,56.3 µM
same,TGI,SF-268 CNS,> 100 µM
same,TGI,CAKI-1 renal,> 100 µM
same,TGI,RXF 393 renal,> 100 µM
same,TGI,SF-295 CNS,> 100 µM
same,TGI,SN12C renal,> 100 µM
same,TGI,HOP-92 NSCLC,> 100 µM
same,TGI,PC-3 prostate,> 100 µM
same,TGI,HS 578T breast,> 100 µM
same,TGI,NCI-H522 lung,> 100 µM
same,TGI,MDA-MB-435,> 100 µM
same,TGI,HT29 colon,> 100 µM
same,TGI,SNB-75 CNS,> 100 µM
same,TGI,ACHN renal,> 100 µM
same,TGI,SK-OV-3 ovarian,91.6 µM
same,TGI,SNB-19 CNS,> 100 µM
same,TGI,OVCAR-4 ovarian,> 100 µM
same,TGI,M14 melanoma,> 100 µM
same,TGI,A549 NSCLC,> 100 µM
same,TGI,DU-145 prostate,> 100 µM
same,TGI,SK-MEL-2 melanoma,> 100 µM
same,TGI,SF-539 CNS,> 100 µM
same,TGI,K-562 leukemia,> 100 µM
same,TGI,TK-10 renal,> 100 µM
same,TGI,SW-620 colon,> 100 µM
same,TGI,KM12 colon,> 100 µM
same,TGI,EKVX NSCLC,> 100 µM
same,TGI,SR leukemia,> 100 µM
same,TGI,HOP-62 NSCLC,96.4 µM
same,TGI,LOX IMVI melanoma,> 100 µM
same,TGI,786-0 renal,> 100 µM
same,TGI,U251 CNS,47.4 µM
same,TGI,UACC-257 melanoma,> 100 µM
same,TGI,SK-MEL-28 melanoma,> 100 µM
same,TGI,COLO 205 colon,> 100 µM
same,TGI,MALME-3M melanoma,> 100 µM
same,TGI,UO-31 renal,> 100 µM
same,TGI,IGROV1 ovarian,> 100 µM
same,TGI,NCI/ADR-RES ovarian,> 100 µM
same,TGI,HCC-2998 colon,> 100 µM
same,TGI,CCRF-CEM leukemia,> 100 µM
same,TGI,T-47D breast,> 100 µM
same,TGI,BT-549 breast,> 100 µM
same,TGI,SK-MEL-5 melanoma,> 100 µM
same,TGI,MCF7 breast,> 100 µM
same,TGI,MDA-MB-231 breast,53.8 µM
same,TGI,NCI-H460 lung,> 100 µM
same,TGI,HCT-15 colon,> 100 µM
same,TGI,HL-60(TB) leukemia,> 100 µM
same,TGI,MOLT-4 leukemia,> 100 µM
same,TGI,NCI-H226 lung,> 100 µM
same,TGI,UACC-62 melanoma,> 100 µM
